Laboratory results taken from patent US20030054053A1, “Methods and compositions for inhibiting the proliferation of prostate cancer cells” (priority 2001, published 2003).

Tests used:
Type in all cases: cell-based, Human
LNCaP cells = assay: LNCaP cell proliferation, MTS assay
Description: (§1) Human prostate cancer cell line, LNCaP (American Type Culture Collection (ATCC), Manassas, Va.), was grown in RPMI 1640 medium (Mediatech, Herndon, Va.) supplemented with 5% fetal bovine serum (FBS) and 5% CO2 at 37° C. until reaching approximately 50-70% confluence. The media were changed to serum-free RPMI 1640 at 24 hours prior to experiments being performed to deplete undesired steroids. […] Equivalent amounts of solvent were added to control cells.
(§2) Five days later, cell proliferation was measured by MTS assay kit (Promega, Madison, Wis.), and PSA and hK2 levels in spent media were determined by the Tandem-E PSA kit (Hybritech Inc., San Diego, Calif.) or Mayo's hK2 assay (Zhang et al., 1999, Endocrin., 140:1665-71).

androgen receptor = assay: Immunocytochemical staining, whole cell androgen receptor in LNCaP cells; conditions: Mib alone versus absence of androgens
Description: Twenty-four hrs later, LNCaP cell slides were washed with 1×PBS, and fixed in acetone at −20° C. for 10 min. The air-dried slides were treated with EtOH/chloroform (1:1) mixture for 5 min to permeate the cell membrane and air-dried again. The slides were washed with 1×TBST and stained with a monoclonal antibody against the human androgen receptor (Pharmingen) using a DAKO kit (DAKO). The androgen receptor staining was observed using microscopy (Zeiss, Thornwood, N.Y.). The density of androgen receptor in a nucleus (or a whole cell) and the area of the nucleus or the whole cell were quantified by KS400 software (Zeiss) provided by the Mayo Molecular Core Facility. The androgen receptor protein level in a nucleus or a whole cell was calculated by multiplication of the density of androgen receptor in the nucleus or the whole cell with the area of the nucleus or the whole cell, respectively. In each sample, 20 to 25 cells were analyzed. All results were analyzed by 2-tailed Student's t-test. A p<0.05 was accepted as the level of significance.

PSA = PSA level in spent media of LNCaP cells (Tandem-E PSA kit); conditions: 1 nM Mib, five days
Description: as §1, §2

hK2 = hK2 level in spent media of LNCaP cells (Mayo's hK2 assay); conditions: 1 nM Mib, five days
Description: as §1, §2

FKBP51 = FKBP51 protein level, Western blot in LNCaP cells; conditions: 1 nM Mib, 24 hrs
Description: Cells were harvested and the whole cell lysate and nuclear extract were prepared as described (Zhu et al., 1999, Endocrin., 140:5451-4). Western blotting analysis was performed according to the protocol described (Id). A mouse antibody against human FKBP51 (1:5,000 dilution) (a gift from Dr. David Toft, Mayo Clinic), the human androgen receptor (1:1000 or 1:2000 dilution) (Pharmingen, San Diego, Calif.) or human Sp1 (1:2000 dilution) (Santa Cruz, Santa Cruz, Calif.) was used as the primary antibody. Ponceau S staining was used for monitoring protein loading and transfer efficiency (Mitchell et al., 1999, Cancer Res., 59:5892-5).

| SMILES | LNCaP cell growth in the presence of Mib (LNCaP cells; 1 nM Mib alone) | androgen receptor level (androgen receptor) | PSA accumulation stimulated by androgens (PSA) | hK2 accumulation stimulated by androgens (hK2) | androgen-induced FKBP51 protein level (FKBP51) | androgen-stimulated cell growth (LNCaP cells; 1 nM Mib, five days, MTS) | androgen-stimulated cell growth at 75 μM (LNCaP cells; 1 nM Mib, silibin 75 μM) | cell proliferation in the absence of Mib (LNCaP cells; no Mib, five days, MTS) |
| --- | --- | --- | --- | --- | --- | --- | --- | --- |
| C[C@@H]1CC2=CC(=O)CC[C@@H]2[C@H]2CC[C@@]3(C)[C@@H](CC[C@]3(C)O)[C@@H]21 [Mib, mibolerone, reference compound] | increased significantly | increased the androgen receptor level significantly | – | – | – | – | – | – |
| COc1cc(C2Oc3cc([C@H]4Oc5cc(O)cc(O)c5C(=O)[C@@H]4O)ccc3OC2CO)ccc1O (some centres unmarked) [silibin] | – | – | inhibited | inhibited | reduced | inhibited | fully suppressed | neither silymarin or silibin affected |
